Source: patent publication US20170348349A1, “Modulation of Amyloid Beta Toxicity and Processing By Xenon Gas” (NOBLIS THERAPEUTICS, INC., priority 2016, published 2017)
Like-named read-outs stand apart in the source and are kept apart here.

What was measured:
[1] = biological target: T1, Amyloid-beta protein (1-42) (Homo sapiens, UniProt P05067); test: Amyloid-beta (1-42) aggregation under anaesthetic gas: electrophoresis/western blot of monomer, LMW and HMW bands; format: biochemical; conditions: Xenon (50%) in air balanced with 5% CO2, 37° C., 24 hours
T1 construct: Amyloid-beta protein (1-42) hydrochloride salt (Bachem AG, Switzerland); purchased Bachem AG, Switzerland
Experimental: For detection of monomer formation Amyloid-beta protein (1-42) hydrochloride salt (Bachem AG, Switzerland) stored at −80° C. was removed and placed on ice. 1,1,1,3,3,3-hexafluoro-2-propanol (HFIP) (Sigma-Aldrich, Poole, UK) was placed on ice in the hood and allow to cool.110 HFIP was added to 0.5 mg amyloid- ? to produce a final concentration of 1 mM. The HFIP plus amyloid-beta solution was mixed on the vortex to ensure no solid remained on the vial edges. The HFIP plus amyloid-beta solution was incubated at room temperature for 60 minutes with the vial closed. The solution was then placed on ice for 10 minutes. The HFIP plus amyloid-beta solution was aliquoted into non-siliconized micro-centrifuge tubes amyloid-beta1-42). […]
When required peptide film containing tubes were removed from the −80° C. freezer and placed on ice. […] The protein was produced as above and was analysed immediately this was termed 0 hours. […]
The treated samples were centrifuged at 14,000 rpm at 4° C. for 10 minutes. […] The bands were detected with horseradish peroxidase-linked Ig anti-rabbit antibody (concentration 1:1000) (New England Biolab, Hitchin, UK) and visualised with the enhanced chemiluminesence system (ECL, Amersham Biosciences, Little Chalfont, UK). The monomer, LMW and HMW bands were located using a protein ladder to determine the molecular mass and were then quantified by densitometry (Adobe Photoshop). […]

[2] = cited from earlier work

T1 sequence (P05067 672-713 limits assumed): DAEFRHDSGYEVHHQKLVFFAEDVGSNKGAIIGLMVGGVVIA

In the case of `[Xe]` [xenon], the “Amyloid β aggregation (electrophoresis stain, FIG. 2A)” value [1] is listed as “reduces Amyloid β aggregation”, the safety ([2]; 12 healthy volunteers, xenon in increasing concentrations 10%, 20%, 30%, 40% (Peterson-Felix et al.)) is listed as “Safety was reported” and the adverse events ([2]; six healthy male volunteers, 21% xenon for 20 minutes (Yagi et al.)) is listed as “no adverse events”. For the same molecule, the adverse events ([2]; ten healthy adults, xenon 25%, 30% and 35%, each for 5-minute intervals (Sclabassi et al.)) was “no adverse events”.
